Laboratory results taken from patent US6603025B1, “Method of production of benzofuranone oximes” (Bayer Aktiengesellschaft, priority 1999, dated 2003).

Key:
[1] = log P; format: physicochemical
[2] = stated in text after the preparation example
[3] = Table 1, benzofuranyl alkanoates prepared analogously to Example 3
[4] = table of benzofuranone oximes prepared analogously to Example 2

| Structure (SMILES) | melting point | logP [1, 3] | logP [1, 4] | further results |
| --- | --- | --- | --- | --- |
| CO/N=C1\COc2ccccc21 [Example 1, O-methyl benzofuran oxime] | – | – | – | logP [1, 2]: 2.38 |
| O/N=C1\COc2ccccc21 [Example 2] | – | – | – | logP [1, 2]: 1.44 |
| CC(=O)Oc1coc2cc(C(F)(F)F)ccc12 [Example 6] | 27 °C | 3.38 | – | – |
| CC(=O)Oc1coc2cc(C)ccc12 [Example 7] | 32 to 36 °C | 3.09 | – | – |
| COc1ccc2c(OC(C)=O)coc2c1 [Example 8] | – | 2.65 | – | – |
| O/N=C1\COc2cc(C(F)(F)F)ccc21 [Example 11] | 150 °C (dec.) | – | 2.38 | – |
| Cc1ccc2c(c1)OC/C2=N\O [Example 12] | – | – | 1.79 | – |
| COc1ccc2c(c1)OC/C2=N\O [Example 13] | – | – | 1.52 | – |
